Source: patent publication US20260317367A1, “SALTS INCLUDING CRYSTALLINE SALTS OF 25-HYDROXY-CHOLEST-5-EN-3-SULFATE AND METHODS FOR PREPARING SAME” (Durect Corporation, priority 2022, published 2026)
“Also recorded” adds a separate entry of the source. Counter-ions that a name gives are not always drawn. Blank lines part the entries; values can stand above or below the compound they belong to.

Legend:
Type in all cases: physicochemical
[1] = Dynamic vapor sorption (DVS), hygroscopicity; conditions: for Water uptake (weight gain) up to about 95% relative humidity: 5% to about 95% RH; for Reversibility of water uptake (in words): RH reduced from 95% to 5%
Text: Dynamic vapor sorption (DVS) measures the uptake of a vapor (typically water) by a sample when exposed to a changing relative humidity. The loss of water can also be measured as relative humidity is decreased. Hygroscopic materials tend to absorb water more readily than non-hygroscopic. In some cases, hydrates absorb water to create higher-order hydrates (e.g., a monohydrate converting to a dihydrate when exposed to increasingly humid conditions). In some salts of the disclosure, moisture is retained upon exposure in a DVS experiment and little or no weight loss is observed upon heating from room temperature. In such experiments, the hygroscopic nature of the salt under study may indicate the formation of a hydrate from an anhydrate. […] Exemplary methods for collecting DVS data are set forth in Example 26.
Dynamic vapor sorption data was collected on a Surface Measurement System DVS Intrinsic instrument. The samples were not dried prior to analysis. Sorption and desorption data were collected over a range from 5% to 95% RH in 10% RH increments under a nitrogen purge. The equilibrium criteria used for the analyses were 0.001 dm/dt weight change in 5 minutes with a minimum step time of 30 minutes and maximum equilibration time of 180 minutes with a 3 minute data logging interval. Data were not corrected for the initial moisture content of the sample.

[2] = Differential scanning calorimetry (DSC), thermal decomposition / endothermic transition; conditions: for Decomposition temperature (DSC): 10° C./min; for First significant endothermic transition (DSC): indicative of thermal degradation or solid-state transformation
Procedure: (§1) Differential scanning calorimetry (DSC) is a thermoanalytical technique where the difference in the amount of heat required to increase the temperature of a sample and reference is measured as a function of temperature. Using this technique, phase transitions of a sample can be measured such as melting point. Decomposition can also be observed by DSC as can dehydration events. In the context of DSC measurements, there is also variability and the term “about” means ±1° C., and such variability is to be understood whether a DSC measurement is prefaced by “about” or not unless specified otherwise. Exemplary methods for collecting DSC data are set forth in Example 21. Thermogravimetric analysis, sometimes referred to as, thermal gravimetric analysis (TGA) is a thermal method of thermal analysis where the mass of a sample is measured as a function of time as the sample temperature changes. For example, when samples disclosed herein are heated and a loss in mass is measured prior to decomposition, this is likely indicative of the loss of water from the sample and may indicate that the sample being heated is a hydrate. Exemplary methods for collecting TGA are set forth in Example 23.
DSC was performed using a Mettler-Toledo DSC3+ differential scanning calorimeter. A tau lag adjustment is performed with indium, tin, and zinc. The temperature and enthalpy are adjusted with octane, phenyl salicylate, indium, tin and zinc. The adjustment is then verified with octane, phenyl salicylate, indium, tin, and zinc. The sample was placed into a hermetically sealed aluminum DSC pan, and the weight was accurately recorded. The pan was then inserted into the DSC cell. A weighed aluminum pan configured as the sample pan was placed on the reference side of the cell. The pan lid was pierced prior to sample analysis. Samples were analyzed from 30° C. to 350° C. or 30° C. to 250° C., both at 10° C./min.

[3] = Thermogravimetric analysis (TGA), weight loss
Procedure: as §1
TG analysis was performed using a Mettler-Toledo TGA/DSC3 analyzer. Temperature and enthalpy adjustments were performed using indium, tin, and zinc, and then verified with indium. The balance was verified with calcium oxalate. The sample was placed in an open aluminum pan. The pan was hermetically sealed, the lid pierced, then inserted into the TG furnace. A weighed aluminum pan configured as the sample pan was placed on the reference platform. The furnace was heated under nitrogen. Each sample was heated from ambient temperature to 350° C. at 10° C./min. Although thermograms are plotted by reference temperature (x-axis), results are reported according to sample temperatures.

[4] = Final pH of the solubility sample solutions in aqueous media; conditions: for pH of the solubility sample, 0.9% Sodium Chloride: 0.9% sodium chloride (blank 5.8); for pH of the solubility sample, 5% Dextrose: 5% dextrose (blank 4.7); for pH of the solubility sample, FaSSGF: FaSSGF (blank 1.5, 1.6); for pH of the solubility sample, FaSSIF: FaSSIF (blank 6.5, 6.5); for pH of the solubility sample, FeSSIF: FeSSIF (blank 4.9, 5.0); for pH of the solubility sample, Water: water (blank 6.3)
Procedure: 25HC3S salts were weighed in 8 mL or 4 mL glass vials with Teflon coated screw caps. Aliquots of each solvent were added to each sample and vortexed for about one minute until excess solid remained. Samples were placed on shaker at room temperature with 210 motion per minute shaking.
After one day, samples were pulled and checked if excess solid was present. About 1.5 mL aliquot of each sample was centrifuged at 12000 rpm for 12 to 15 minutes. […] Aliquots of the top clear solution of each centrifuged sample in MeOH, EtOH, IPA and ACN were diluted with diluent (water:MeOH 95:5) and assayed by HPLC. Samples of the salts in aqueous media were assayed by HPLC without dilution.
5.1 Solubility of 25HC3S Salts in Aqueous Media

[5] = Angle of repose of 25HC3S salts; conditions: for Flow Property per USP<1174> Powder Flow: classification by angle of repose
Procedure: Angle of repose is measured as follows. Powder is poured from a funnel onto a flat surface until a cone of powder is created. The angle of repose is calculated according to the following equation: […]
Table C1, from USP<1174> Powder Flow, describes the powder flow properties correlating to the angles of repose.
The lower the angle of repose, the more flowable is a material. Powder with an angle of repose between 25° to 30° will show excellent flow through a hopper, feed frame, die table and die bore smoothly. From 41° to greater than 66°, you may experience powder flow difficulties like rat-holing or bridging within the hopper.
The angle of repose was determined by pouring approximately 2 grams of a 25HC3S salt through a 7 mm inner diameter plastic tube into the center of a 21.14 mm diameter rubber O-ring, resulting in the formation of a powder cone of fixed diameter. The height of the cone was estimated with calipers.

[6] = DVS, listed as crystalline 25HC3S potassium
[7] = DVS, listed as crystalline 25HC3S tromethammonium
[8] = listed as 25HC3S tromethammonium
[9] = DVS, listed as crystalline 25HC3S choline
[10] = DVS, listed as crystalline 25HC3S benzathine

- Water uptake (change in mass), 25% to 45% RH ([1]; DVS, between 25% and 45% relative humidity): about 2.8%
- Decomposition temperature (DSC) ([2]; listed as crystalline 25HC3S zinc): about 119 °C
- Weight loss by TGA, about […] C. to about 190° C. ([3]; about […] C. to about 190° C., may be decomposition): 11.5%
- Weight loss by TGA, room temperature to about 130° C. ([3]; room temperature to about 130° C.): about 5.1%
- pH of the solubility sample, 0.9% Sodium Chloride ([4]; listed as 25HC3S zinc): 6.4
- pH of solubility sample solution in 0.9% sodium chloride ([4]; 0.9% sodium chloride (medium pH 5.8)): 6.4
- pH of the solubility sample, 5% Dextrose ([4]; listed as 25HC3S zinc): 7.1
- pH of the solubility sample, FaSSGF [4]: 1.6
- pH of the solubility sample, FaSSIF ([4]; listed as 25HC3S zinc): 6.5
- pH of the solubility sample, FeSSIF [4]: 5.0
- pH of solubility sample solution in water [4]: 7.4
- pH of the solubility sample, Water ([4]; listed as 25HC3S zinc): 7.4
- Flow Property per USP<1174> Powder Flow ([5]; listed as 25HC3S zinc): Passable - may hang up
- Angle of Repose ([5]; listed as 25HC3S zinc): 42.4 degrees
- Angle of Repose, Rounded Whole Number ([5]; listed as 25HC3S zinc): 42 degrees
Structure (SMILES): CC(CCCC(C)(C)O)C1CCC2C3CC=C4CC(OS(=O)(=O)O)CCC4(C)C3CCC12C (stereo not drawn) [Salt #3]

- Water uptake (weight gain) up to about 95% relative humidity [1, 6]: 2%
- Hygroscopicity (in words) [1, 6]: limited hygroscopicity
- Decomposition temperature (DSC) ([2]; listed as crystalline 25HC3S potassium): 198 °C
- First significant endothermic transition (DSC) ([2]; listed as potassium): ~198 °C
- Weight loss by TGA, 100° C. to 180° C. ([3]; 100° C. to 180° C.): 1.7%
- Weight loss by TGA to about 100° C. ([3]; to about 100° C.): about 0.9%
- pH of the solubility sample, 0.9% Sodium Chloride ([4]; listed as 25HC3S potassium): 8.4
- pH of the solubility sample, 5% Dextrose ([4]; listed as 25HC3S potassium): 7.3
- pH of the solubility sample, FaSSGF [4]: 1.6
- pH of the solubility sample, FaSSIF ([4]; listed as 25HC3S potassium): 6.5
- pH of the solubility sample, FeSSIF [4]: 5.0
- pH of solubility sample solution in water [4]: 8.9
- pH of the solubility sample, Water ([4]; listed as 25HC3S potassium): 8.9
- Flow Property per USP<1174> Powder Flow ([5]; listed as 25HC3S potassium): Fair - aid not needed
- Angle of Repose ([5]; listed as 25HC3S potassium): 37.7 degrees
- Angle of Repose, Rounded Whole Number ([5]; listed as 25HC3S potassium): 38 degrees
Structure (SMILES): CC(CCCC(C)(C)O)C1CCC2C3CC=C4CC(OS(=O)(=O)O)CCC4(C)C3CCC12C (stereo not drawn) [Salt #1]

- Water uptake (weight gain) up to about 95% relative humidity [1, 7]: over 20%
- Hygroscopicity (in words) [1, 7]: hygroscopic
- Decomposition temperature (DSC) ([2]; listed as crystalline 25HC3S tromethammonium): about 184 °C
- Weight loss by TGA up to about 80° C. ([3]; up to about 80° C.): ~0.3%
- pH of the solubility sample, 0.9% Sodium Chloride [4, 8]: 7.2
- pH of the solubility sample, 5% Dextrose [4, 8]: 7.2
- pH of the solubility sample, FaSSGF [4]: 1.6
- pH of the solubility sample, FaSSIF [4, 8]: 6.5
- pH of the solubility sample, FeSSIF [4, 8]: 4.9
- pH of the solubility sample, Water [4, 8]: 8.4
- Flow Property per USP<1174> Powder Flow [5, 8]: Fair - aid not needed
- Angle of Repose [5, 8]: 40.2 degrees
- Angle of Repose, Rounded Whole Number [5, 8]: 40 degrees
Structure (SMILES): CC(CCCC(C)(C)O)C1CCC2C3CC=C4CC(OS(=O)(=O)O)CCC4(C)C3CCC12C (stereo not drawn) [Salt #8]

- Weight loss on return to 5% relative humidity ([1]; DVS desorption, 95% to 5% RH): 0.5%
- Hygroscopicity (in words) ([1]; DVS, listed as 25HC3S choline): surprisingly low hygroscopicity
- First significant endothermic transition (DSC) ([2]; listed as choline): ~198 °C
- Weight loss by TGA up to 198° C. (in words) ([3]; up to 198° C.): negligible weight loss
- pH of the solubility sample, 0.9% Sodium Chloride ([4]; listed as 25HC3S choline): 8.2
- pH of the solubility sample, 5% Dextrose ([4]; listed as 25HC3S choline): 7.3
- pH of the solubility sample, FaSSGF [4]: 1.6
- pH of the solubility sample, FaSSIF ([4]; listed as 25HC3S choline): 6.5
- pH of the solubility sample, FeSSIF [4]: 5.0
- pH of the solubility sample, Water ([4]; listed as 25HC3S choline): 8.8
- Angle of Repose ([5]; listed as 25HC3S choline): 34.9 degrees
- Angle of Repose, Rounded Whole Number ([5]; listed as 25HC3S choline): 35 degrees
Structure (SMILES): CC(CCCC(C)(C)O)C1CCC2C3CC=C4CC(OS(=O)(=O)O)CCC4(C)C3CCC12C (stereo not drawn) [Salt #4]
- Reversibility of water uptake (in words) [1, 9]: no hysteresis; also recorded: reversibly lose all that water
- Hygroscopicity (in words) [1, 9]: not appreciably hygroscopic; also recorded: less hygroscopic

- Water uptake (weight gain) up to about 95% relative humidity [1, 10]: less than 0.5%
- Reversibility of water uptake (in words) [1, 10]: reversibly lose all that water
- Hygroscopicity (in words) [1, 10]: low hygroscopicity
- First significant endothermic transition (DSC) ([2]; listed as benzathine): ~211 °C
- Weight loss by TGA up to 200° C. ([3]; up to 200° C., listed as crystalline 25HC3S benzathine): 0.4%
- pH of the solubility sample, 0.9% Sodium Chloride ([4]; listed as 25HC3S benzathine): 8.2
- pH of the solubility sample, 5% Dextrose ([4]; listed as 25HC3S benzathine): 7.1
- pH of the solubility sample, FaSSGF [4]: 1.6
- pH of the solubility sample, FaSSIF ([4]; listed as 25HC3S benzathine): 6.5
- pH of the solubility sample, FeSSIF [4]: 5.0
- pH of the solubility sample, Water ([4]; listed as 25HC3S benzathine): 8.6
- Flow Property per USP<1174> Powder Flow ([5]; listed as 25HC3S benzathine): Passable - may hang up
- Angle of Repose ([5]; listed as 25HC3S benzathine): 43.7 degrees
- Angle of Repose, Rounded Whole Number ([5]; listed as 25HC3S benzathine): 44 degrees
Structure (SMILES): CC(CCCC(C)(C)O)C1CCC2C3CC=C4CC(OS(=O)(=O)O)CCC4(C)C3CCC12C (stereo not drawn) [Salt #9]
